From article PMC11464771, “Elucidation of Spartina dimethylsulfoniopropionate synthesis genes enables engineering of stress tolerant plants” (Nature Communications, 2024)

B1: SaSDC (SaODC), S-methylmethionine decarboxylase (Sporobolus anglicus) (protein)
chain: MVGGSPMPMQAMLVVPGVKDRKVLSFKGDALKENDAIRSITSSTPAQRSAFHVLDLAKVVDLYRAWRRALPNVRPYYAVKCNSEPALLGALAALGAGFDCASHAEIDAVLALGVHPSSIVYANPCKPESHLEHAAAAGVNLTTYDSEEEVAKVRRCHPRCELLLRIKGPDDEEAQCDLGIKYGALADEVVPLLRAAQRAGVPVAGVAFNVGSPASRMDLYRDAIEAARAAFDAAAGLGMPPMRVLDIGGGFTAGATFEEAAAVINDALARHFGDLPYVEVISEPGRYFVKKAITLAARVIGKRTRGEVREYWIDDGVYGSFNCVIMDHYKPRPRPLVTPRPGEAKYTSTVFGPTCDSQDMVVTGYKLPEMSVGDWLVFDDMGAYTTAAGSKFNGFDTSDIKIYLAYST
notes: full-length ORF from transcriptome, synthetic gene, pMALc2x (MBP fusion), E. coli BL21(DE3), amylose resin

Legend:
[1] = molecular target: T1, MMT from Arabidopsis thaliana (Arabidopsis thaliana, UniProt Q9LTB2); experiment: in vitro MMT assay; type: biochemical; settings: 1 mM L-methionine, 1 mM S-adenosylmethionine, Tris-HCl 20 mM pH 7.2, DTT 1 mM, 25 °C
T1 construct: gene MMT1; recombinant, probably pMALc2x (MBP fusion), E. coli
T1 sequence (Q9LTB2 2-1071): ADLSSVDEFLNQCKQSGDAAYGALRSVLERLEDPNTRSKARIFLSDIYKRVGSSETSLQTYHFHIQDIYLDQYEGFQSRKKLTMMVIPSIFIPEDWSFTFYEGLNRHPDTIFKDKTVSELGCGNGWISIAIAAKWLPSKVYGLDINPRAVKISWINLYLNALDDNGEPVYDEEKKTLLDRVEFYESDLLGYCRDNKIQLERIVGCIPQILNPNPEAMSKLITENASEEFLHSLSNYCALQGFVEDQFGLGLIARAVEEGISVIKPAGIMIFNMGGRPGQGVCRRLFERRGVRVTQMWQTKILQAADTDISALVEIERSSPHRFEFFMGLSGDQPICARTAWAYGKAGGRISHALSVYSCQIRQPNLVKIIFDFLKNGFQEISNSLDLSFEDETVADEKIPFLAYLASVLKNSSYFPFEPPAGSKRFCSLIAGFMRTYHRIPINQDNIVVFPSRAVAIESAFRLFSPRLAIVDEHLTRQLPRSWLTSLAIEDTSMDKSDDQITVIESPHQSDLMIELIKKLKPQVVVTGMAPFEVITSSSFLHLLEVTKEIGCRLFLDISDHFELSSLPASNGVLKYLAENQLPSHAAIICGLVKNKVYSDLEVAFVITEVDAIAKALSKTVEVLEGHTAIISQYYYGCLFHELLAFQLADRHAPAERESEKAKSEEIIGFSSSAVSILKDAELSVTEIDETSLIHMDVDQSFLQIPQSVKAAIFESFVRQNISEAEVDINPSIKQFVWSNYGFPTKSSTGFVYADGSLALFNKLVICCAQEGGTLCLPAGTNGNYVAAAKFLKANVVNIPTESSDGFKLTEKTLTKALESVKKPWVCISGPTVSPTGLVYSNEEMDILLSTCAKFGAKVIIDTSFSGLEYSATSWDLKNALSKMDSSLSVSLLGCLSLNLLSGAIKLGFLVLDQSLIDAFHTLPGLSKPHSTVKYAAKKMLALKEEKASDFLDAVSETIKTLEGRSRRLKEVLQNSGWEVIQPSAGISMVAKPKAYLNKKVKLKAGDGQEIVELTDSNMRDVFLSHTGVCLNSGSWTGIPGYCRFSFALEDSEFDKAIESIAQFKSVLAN

MMT from Hordeum vulgare = molecular target: T2, MMT from Hordeum vulgare (Hordeum vulgare, UniProt Q9MBC2); experiment: in vitro MMT assay; type: biochemical; settings: 1 mM L-methionine, 1 mM S-adenosylmethionine, Tris-HCl 20 mM pH 7.2, DTT 1 mM, 25 °C
T2 construct: gene MMT1; recombinant, probably pMALc2x (MBP fusion), E. coli
T2 sequence (Q9MBC2 1-1088): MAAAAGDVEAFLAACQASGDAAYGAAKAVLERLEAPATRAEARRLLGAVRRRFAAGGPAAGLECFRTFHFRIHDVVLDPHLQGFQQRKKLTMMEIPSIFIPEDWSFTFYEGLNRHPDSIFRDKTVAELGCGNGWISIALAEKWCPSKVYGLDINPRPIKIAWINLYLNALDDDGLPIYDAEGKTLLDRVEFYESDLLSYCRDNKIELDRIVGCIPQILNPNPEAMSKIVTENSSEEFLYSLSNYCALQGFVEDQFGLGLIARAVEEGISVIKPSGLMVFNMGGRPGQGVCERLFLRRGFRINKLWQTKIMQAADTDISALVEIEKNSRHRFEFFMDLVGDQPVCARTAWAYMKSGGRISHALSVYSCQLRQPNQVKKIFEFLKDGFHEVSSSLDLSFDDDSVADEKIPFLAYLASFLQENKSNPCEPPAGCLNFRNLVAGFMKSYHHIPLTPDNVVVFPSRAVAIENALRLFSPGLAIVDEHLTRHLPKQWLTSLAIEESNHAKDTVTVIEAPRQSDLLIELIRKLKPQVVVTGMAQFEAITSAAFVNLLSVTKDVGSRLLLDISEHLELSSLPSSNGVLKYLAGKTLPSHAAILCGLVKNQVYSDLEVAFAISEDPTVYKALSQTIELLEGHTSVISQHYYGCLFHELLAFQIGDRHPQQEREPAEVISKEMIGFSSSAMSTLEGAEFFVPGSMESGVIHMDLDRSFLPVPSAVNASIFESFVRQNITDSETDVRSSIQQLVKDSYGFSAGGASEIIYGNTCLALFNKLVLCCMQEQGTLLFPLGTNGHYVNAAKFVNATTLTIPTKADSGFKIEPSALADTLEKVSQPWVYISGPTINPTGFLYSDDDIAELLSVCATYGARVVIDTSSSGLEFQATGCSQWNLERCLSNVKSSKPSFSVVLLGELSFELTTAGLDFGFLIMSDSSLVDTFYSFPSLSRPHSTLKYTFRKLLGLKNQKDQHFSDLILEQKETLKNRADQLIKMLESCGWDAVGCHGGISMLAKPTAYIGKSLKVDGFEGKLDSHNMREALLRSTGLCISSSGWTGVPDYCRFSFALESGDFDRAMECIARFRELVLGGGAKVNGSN

[2] = substrate: C[S+](C)CC[C@H](N)C(=O)O; experiment: NMR initial rates of DMSP-amine formation; type: biochemical, Sporobolus anglicus; settings: Tris-HCl 20 mM pH 7.2, 0.1 mM pyridoxal 5'-phosphate, 25 °C

| Molecule | in vitro MMT assay [1] | in vitro MMT assay (MMT from Hordeum vulgare) | Km [2] [µM] |
| --- | --- | --- | --- |
| CSCC[C@H](N)C(=O)O [L-methionine] | SaMMT1 in vitro activity was comparable to previously characterised plant MMTs from Arabidopsis thaliana | plant MMTs from Arabidopsis thaliana and Hordeum vulgare |  |
| B1 |  |  | 2130 ± 200 |
